The results in this text go back to PMC10548421, “Anticancer Potential of Diruthenium Complexes with Bridging Hydrocarbyl Ligands from Bioactive Alkynols” (Inorganic Chemistry, 2023).

Experiment [1] relates to MCF-7 breast adenocarcinoma cell line. Briefly: MTT in vitro cytotoxicity, MCF-7. As to conditions: incubation 24 h, mean ± SD. It counts as cell-based, human. As for the experimental part: (§1) The cytotoxicity assessment was conducted on various human cancer cell lines, including A2780 ovarian carcinoma, A2780R cisplatin-resistant ovarian carcinoma, MCF-7 breast, HOS osteosarcoma, A549 epithelial lung, PANC-1 pancreatic, Caco-2 colorectal, PC-3 prostate adenocarcinoma, and HeLa cervical cell lines. Additionally, the assessment extended to a normal human fetal fibroblast cell line (MRC-5). Cells were obtained from ATCC collection and cultivated according to the producer’s instructions. Stock solutions of the compounds were prepared in DMF immediately before application, and diluted with H2O to achieve the final concentration of 0.1% v/v DMF.[99] The culture media were enriched with 10% fetal calf serum. Subsequently, the cells were exposed to the tested compounds, vehicle (0.1% v/v DMF) and Triton X-100 (1% v/v), during incubation. The conventional MTT assay was carried out following different incubation periods (Tables 5-6). The absorbance was measured at 570 nm by using a spectrophotometer (Infinite M200, Schoeller Instruments, Prague, Czech Republic). The obtained data are presented as the percentage of cell viability with 100% representing negative control treatment (0.1% v/v DMF) and 0% representing the positive control (Triton X-100). The half-maximal inhibitory concentrations (IC50) were determined from dose–response curves using GraphPad Prism 6 software (GraphPad Software, San Diego, USA).

Experiment [2] has as its system MRC-5 normal human lung fibroblast cell line. Briefly: MTT in vitro cytotoxicity, MRC-5 (selectivity). In kind it is cell-based. As to conditions: normal cells, MTT, incubation 24 h, mean ± SD. As for the experimental part:
as §1

Experiment [3] deals with A549 human lung adenocarcinoma cell line. Description: MTT in vitro cytotoxicity, A549. Conditions: incubation 24 h, mean ± SD. It counts as cell-based. As for the experimental part:
as §1

Experiment [4] concerns HeLa human cervical carcinoma cell line. Briefly: MTT in vitro cytotoxicity, HeLa. Conditions: incubation 24 h, mean ± SD. In kind it is cell-based. As for the experimental part:
as §1

The subject of experiment [5] is A2780 cells. Briefly: Apoptosis, Annexin V/propidium iodide flow cytometry. It counts as cell-based, human. As to conditions: A2780, cisplatin 15 μM, 24 h, Annexin V/PI. As for the experimental part: (§2) The A2780 ovarian carcinoma cell line was received from Merck (reference 93112519–1VL) and cultured at 37 °C in an environment with 5% CO2. The cultivation was carried out in complete cell culture medium (RPMI-1640 medium, Merck), which was supplemented with 10% fetal bovine serum (FBS, Merck), 1% L-glutamine (Merck) and 1% penicillin–streptomycin–neomycin (PSN, Merck). For the flow cytometry experiments, three independent duplicates were analyzed using a BD FACSVerse flow cytometer (Becton Dickinson, USA). At least 5 × 10^3 events were recorded for each sample. The same procedure was replicated for the experiments described below. Solutions of the complexes were formulated using the stock solutions (Section 5.1).
Apoptosis assay was performed using an Annexin V-FITC/PI commercial kit (V13242, Thermo Fisher Scientific, USA), while caspase 3/7 activation assay was performed with a CellEvent Caspase-3/7 Green Flow Cytometry Assay Kit (C10427, Thermo Fisher Scientific, USA). A2780 cells were seeded in 24-well plates at a density of 5 × 10^4 cells per well; after 24 h, the cells were exposed to 4 μM solution of the selected complex for 24 h. […] The supernatant was collected, cells were washed with PBS (0.1 M, pH 7.4), and trypsin was added (0.25% trypsin-EDTA, GibcoTM). Finally, complete cell culture medium was added to stop the trypsinization, and a final volume of 500 μL was divided into two 250 μL aliquots, following the protocol provided by the manufacturer. Samples were centrifuged, treated with the respective buffers, and then incubated in the dark at room temperature for 10 min (Annexin V-FITC/PI) or at 37 °C for 30 min (CellEventTM Caspase-3/7 Green Detection Reagent).
(In general: In flow cytometry, cells or beads pass a laser one at a time.)

Experiment [6] deals with HOS human osteosarcoma cell line. Briefly: MTT in vitro cytotoxicity, HOS. In kind it is cell-based. As to conditions: incubation 24 h, mean ± SD. As for the experimental part:
as §1

The subject of experiment [7] is PANC-1 human pancreatic carcinoma cell line. Description: MTT in vitro cytotoxicity, PANC-1. In kind it is cell-based. As to conditions: incubation 24 h, mean ± SD. As for the experimental part: as §1
The test system of experiment [8] is A2780 cells. Description: Mitochondrial membrane potential analysis (MITO-ID). It counts as cell-based, human. Conditions: A2780, complexes 4 μM, cisplatin 15 μM, 24 h. As for the experimental part: as §2
To investigate the effects on mitochondrial membrane potential of A2780 cells, an MITO-ID Membrane potential detection kit (Enzo Life Sciences, USA) was used. Cells were seeded in a 24-well (5 × 10^4 cells/well), and then incubated with 4 μM solution of complexes for 24 h. The supernatant was collected, cells were washed with warm PBS, detached using 0.25% trypsin-EDTA (Gibco) and resuspended in a cell culture medium. Then, samples were stained with diluted MITO-ID MP Detection Reagent (according to the protocol) at RT for 15 min, prior to flow cytometry analysis. A positive control was established by treating the samples with 2 μM carbonyl cyanide 3-chlorophenylhydrazone.

Experiment [9] deals with A2780R cisplatin-resistant human ovarian carcinoma cell line. Briefly: MTT in vitro cytotoxicity, A2780R. It counts as cell-based. Conditions: incubation 24 h, mean ± SD. As for the experimental part:
as §1

The test system of experiment [10] is PC-3 human prostate carcinoma cell line. Briefly: MTT in vitro cytotoxicity, PC-3. It counts as cell-based. Conditions: incubation 24 h, mean ± SD. As for the experimental part:
as §1

The test system of experiment [11] is A2780 cells. Briefly: Autophagy analysis (CYTO-ID). Conditions: A2780, complexes 4 μM, cisplatin 15 μM, 24 h. It counts as cell-based, human. As for the experimental part: as §2
The potential induction of autophagy by 3a and 3b in A2780 cells was studied with the kit CYTO-ID Autophagy Detection 2.0 (from Enzo Life Sciences, USA), following the protocol provided by the manufacturer. […] The supernatant was collected, cells were washed with warm PBS, detached using 0.25% trypsin-EDTA (Gibco) and resuspended in a cell culture medium. Diluted CYTO-ID Green stain solution (according to the protocol) was used to stain the samples. Following incubation for 30 min in a light-protected environment, the samples were washed with PBS (phosphate-buffered saline). Subsequently, a flow cytometry experiment was conducted. A mixture of chloroquine (10 μM) and rapamycin (0.5 μM) was used as positive control.

`N.N.[Cl][Pt][Cl]` [cisplatin, reference compound]: the IC50 in experiment [1] is 28.4 ± 2.7 µM; in [2], over 50 µM; in [3] it was 39.2 ± 3.1 µM; in experiment [4] it was 30.7 ± 0.6 µM; in experiment [6], 26.3 ± 3.3 µM; in experiment [7] it was over 50 µM. For the same molecule, the half-inhibitory concentration (IC50) in [9] was 40 ± 3.9 µM; in experiment [10], over 50 µM. The “cells with apoptotic changes” value in [5] is listed as “ca. 40 % of the cells”. In experiment [8], the “cell count with damaged mitochondrial membranes (in words)” value was “notable augmentation”. The “autophagy level (in words)” value in experiment [11] is recorded as “significantly enhanced”.

The term IC50 denotes the concentration that gives 50% inhibition. Read a high IC50 as a need for much substance.
